Measured values: patent publication US6673938B1, “Substituted pyridine herbicides” (Syngenta Participations AG, priority 1998, dated 2004)

Experiments:
[1] = test system: Monocotyledonous and dicotyledonous test plants; experiment: Post-emergence herbicidal action; type: in vivo; settings: 2000 g/ha, sprayed in 4- to 6-leaf stage, evaluated after approximately 18 days, nine-step scale
How it was run: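 Greenhouse plants sprayed at the 4- to 6-leaf stage with test substance as wettable-powder suspension or emulsion-concentrate emulsion, 2 kg or 250 g a.i./ha in 500 l water/ha. Scored after about 18 days on a nine-step scale (1=complete damage, 9=no effect).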

[2] = test system: Monocotyledonous and dicotyledonous test plants; experiment: Herbicidal action before emergence of the plants (pre-emergence action); type: in vivo; settings: 2000 g/ha, evaluated after 3 weeks, nine-step scale
How it was run: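 Sprayed onto soil immediately after sowing as WP suspension or EC emulsion at 2 kg or 250 g a.i./ha (500 l water/ha). Greenhouse growth for 3 weeks, then scored on a nine-step scale (1 = complete damage, 9 = no effect).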

| SMILES | melting point | Post-emergence action, Ipomoea [1] | Post-emergence action, Lolium [1] | Post-emergence action, Setaria [1] | Post-emergence action, Sinapis [1] | Post-emergence action, Solanum [1] | Post-emergence action, Stellaria [1] | pre-emergence action, Cyperus [2] | pre-emergence action, Ipomoea [2] | pre-emergence action, Setaria [2] | pre-emergence action, Sinapis [2] | pre-emergence action, Solanum [2] | pre-emergence action, Stellaria [2] |
| --- | --- | --- | --- | --- | --- | --- | --- | --- | --- | --- | --- | --- | --- |
| CC1(C)C(=O)C(C(=O)c2ccc(C(F)(F)F)nc2CBr)=C(Cl)C(C)(C)C1=O [Compound A1029-B1105, 4-(2-Bromomethyl-6-trifluoromethylpyridine-3-carbonyl)-5-chloro-2,2,6,6-tetramethylcyclohex-4-ene-1,3-dione] | 94.5 to 95 °C |  |  |  |  |  |  |  |  |  |  |  |  |
| Cc1nc(C(F)(F)F)ccc1C(=O)C1=C(Cl)C(C)(C)C(=O)C(C)(C)C1=O [Compound A2-B1105, 5-Chloro-2,2,6,6-tetramethyl-4-(2-methyl-6-trifluoromethylpyridine-3-carbonyl)cyclohex-4-ene-1,3-dione] | 119 °C |  |  |  |  |  |  |  |  |  |  |  |  |
| Cc1nc(C(F)(F)F)ccc1C(=O)C1=C(O)C(C)(C)CCC1=O [Compound A2-B24, 3-Hydroxy-4,4-dimethyl-2-(2-methyl-6-trifluoromethylpyridine-3-carbonyl)cyclohex-2-enone] | 75 to 76 °C | 1 | 2 | 2 | 1 | 2 | 2 | 1 | 1 | 1 | 2 | 1 | 1 |
| Cc1nc(C(F)(F)F)ccc1C(=O)C1=C(Sc2ccccc2)CCCC1=O [Compound A2-B1102, 2-(2-methyl-6-trifluoromethylpyridine-3-carbonyl)-3-phenylsulfanylcyclohex-2-enone] | 124 to 125 °C |  |  |  |  |  |  |  |  |  |  |  |  |
| Cc1nc(C(F)(F)F)ccc1C(=O)C1=C(S(=O)(=O)c2ccccc2)CCCC1=O [Compound A2-B1104, 3-Benzenesulfonyl-2-(2-methyl-6-trifluoromethylpyridine-3-carbonyl)cyclohex-2-enone] | 165 to 167 °C |  |  |  |  |  |  |  |  |  |  |  |  |
| Cc1nc(C(F)(F)F)ccc1C(=O)C1=C(O)CCCC1=O [Compound A2-B1, 3-hydroxy-2-(2-methyl-6-trifluoromethylpyridine-3-carbonyl)cyclohex-2-enone] | 90 to 92 °C | 1 | 2 | 1 | 1 | 1 | 2 | 2 | 2 | 1 | 2 | 2 | 1 |
| Cc1nc(C(F)(F)F)ccc1C(=O)C1=C(O)C(C)(C)C(=O)C(C)(C)C1=O [Compound A2-B354, 5-hydroxy-2,2,6,6-tetramethyl-4-(2-methyl-6-trifluoromethylpyridine-3-carbonyl)cyclohex-4-ene-1,3-dione] | 139 to 140 °C | 2 | 2 | 2 | 2 | 2 | 2 | 1 | 1 | 1 | 1 | 1 | 2 |
| Cc1nc(C(F)(F)F)ccc1C(=O)C1=C(O)C(C)(S(C)(=O)=O)CC(C)C1=O (centres unmarked) [Compound A2-B75] |  | 2 | 2 | 3 | 1 | 2 | 2 | 2 | 3 | 2 | 2 | 1 | 2 |
| Cc1nc(C(F)(F)F)ccc1C(=O)C1=C(O)C(C)CC2(CC2)C1=O (centres unmarked) [Compound A2-C2] |  | 2 | 1 | 1 | 1 | 1 | 1 | 2 | 3 | 1 | 1 | 1 | 1 |
| COC1(C)CCC(=O)C(C(=O)c2ccc(C(F)(F)F)nc2C)=C1O (centres unmarked) [Compound A2-B33] |  | 2 | 4 | 2 | 1 | 2 | 2 | 1 | 3 | 2 | 2 | 1 | 3 |
| CSC1(C)CC(C)(C)C(=O)C(C(=O)c2ccc(C(F)(F)F)nc2C)=C1O (centres unmarked) [Compound A2-B95] |  | 1 | 2 | 2 | 1 | 2 | 2 | 2 | 4 | 2 | 2 | 1 | 2 |
| COC(=O)C1(C)CCC(=O)C(C(=O)c2ccc(C(F)(F)F)nc2C)=C1O (centres unmarked) [Compound A2-B34] |  | 1 | 3 | 2 | 1 | 1 | 2 | 1 | 3 | 2 | 2 | 1 | 2 |
| Cc1nc(C(F)(F)F)ccc1C(=O)C1=C(O)C(C)CCC1=O (centres unmarked) [Compound A2-B2] |  | 1 | 2 | 2 | 1 | 2 | 2 | 1 | 1 | 1 | 1 | 1 | 2 |
| Cc1nc(C(F)(F)F)ccc1C(=O)C1=C(O)CCC2(CCC2)C1=O [Compound A2-C146] |  | 1 | 2 | 2 | 1 | 2 | 2 | 1 | 2 | 2 | 2 | 1 | 2 |
| COC(=O)C1(C)CCC(=O)C(C(=O)c2ccc(C(F)(F)Cl)nc2C)=C1O (centres unmarked) [Compound A94-B34, methyl 3-[6-(chlorodifluoromethyl)-2-methylpyridine-3-carbonyl]-2-hydroxy-1-methyl-4-oxocyclohex-2-enecarboxylate] | 108 to 110 °C |  |  |  |  |  |  |  |  |  |  |  |  |
| CCN(CC)CC.Cc1nc(C(F)(F)F)ccc1C(=O)C1=C(O)CCCC1=O [Compound A2-B1100] |  | 2 | 2 | 3 | 1 | 1 | 2 | 1 | 3 | 1 | 2 | 1 | 2 |
